What all share (assay): relative viability (nuclei count vs DMSO), 5 days (fraction); higher = more cells survive
Compound in the assay “OSI-027 + Navitoclax”: COc1cccc2cc(-c3nc([C@H]4CC[C@H](C(=O)O)CC4)n4ncnc(N)c34)[nH]c12 [OSI-027] + CC1(C)CCC(c2ccc(Cl)cc2)=C(CN2CCN(c3ccc(C(=O)NS(=O)(=O)c4ccc(N[C@H](CCN5CCOCC5)CSc5ccccc5)c(S(=O)(=O)C(F)(F)F)c4)cc3)CC2)C1 [Navitoclax] (partner 0.5 µM)
In a few lines:
(§1)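 Cells from lung cancer lines were seeded into 1536-well plates and, one day later, dosed by pin tool. Treatments were either a single drug or a fixed dose of an anchor drug with five library-drug doses (not always all listed) in √10 steps. After 5 days, nuclei were stained in a one-step fixation (final 0.05% Triton X-100, 1% formaldehyde, 1 ug/ml Hoechst) and counted on 4× images, and relative viability is the treated-to-vehicle nuclei ratio, as the median of duplicate plates.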

Compound in the assay “OSI-027 + Foretinib”: COc1cccc2cc(-c3nc([C@H]4CC[C@H](C(=O)O)CC4)n4ncnc(N)c34)[nH]c12 [OSI-027] + COc1cc2c(Oc3ccc(NC(=O)C4(C(=O)Nc5ccc(F)cc5)CC4)cc3F)ccnc2cc1OCCCN1CCOCC1 [Foretinib] (partner 0.25 µM)
In short, it runs like this:
as §1

Compound in the assay “Vemurafenib + Luminespib”: CCCS(=O)(=O)Nc1ccc(F)c(C(=O)c2c[nH]c3ncc(-c4ccc(Cl)cc4)cc23)c1F [Vemurafenib] + CCNC(=O)c1noc(-c2cc(C(C)C)c(O)cc2O)c1-c1ccc(CN2CCOCC2)cc1 [Luminespib] (partner 0.01 µM)
In short, it runs like this:
as §1

Compound in the assay “Vemurafenib + AZD7762”: CCCS(=O)(=O)Nc1ccc(F)c(C(=O)c2c[nH]c3ncc(-c4ccc(Cl)cc4)cc23)c1F [Vemurafenib] + NC(=O)Nc1cc(-c2cccc(F)c2)sc1C(=O)N[C@H]1CCCNC1 [AZD7762] (partner 0.2 µM)
In short, it runs like this:
as §1

As to NCI-H647, the relative viability in the assay with OSI-027 + Navitoclax (first compound 0.01 µM) came to 1.18; with OSI-027 + Navitoclax (first compound 0.03162 µM) it was 1.11; with OSI-027 + Navitoclax (first compound 0.1 µM), 1.09; in the assay with OSI-027 + Navitoclax (first compound 0.3162 µM) it was 0.994; with OSI-027 + Navitoclax (first compound 1 µM) it was 0.643; in the assay with OSI-027 + Foretinib (first compound 0.01 µM), 1.39. The relative viability with OSI-027 + Foretinib (first compound 0.03162 µM) is 1.14; in the assay with OSI-027 + Foretinib (first compound 0.1 µM), 1.28; in the assay with OSI-027 + Foretinib (first compound 0.3162 µM), 1.01; in the assay with OSI-027 + Foretinib (first compound 1 µM), 0.575; with Vemurafenib + Luminespib (first compound 0.03162 µM), 0.157; with Vemurafenib + Luminespib (first compound 0.1 µM), 0.165. Also, the relative viability with Vemurafenib + Luminespib (first compound 0.3162 µM) was 0.138; with Vemurafenib + Luminespib (first compound 1 µM), 0.212; with Vemurafenib + AZD7762 (first compound 0.03162 µM) it was 0.433; in the assay with Vemurafenib + AZD7762 (first compound 0.1 µM) it was 0.541; with Vemurafenib + AZD7762 (first compound 0.3162 µM), 0.26; with Vemurafenib + AZD7762 (first compound 1 µM) it was 0.432.

With NCI-H727, the relative viability in the assay with OSI-027 + Navitoclax (first compound 0.01 µM) was 0.406; with OSI-027 + Navitoclax (first compound 0.03162 µM), 0.418; in the assay with OSI-027 + Navitoclax (first compound 0.1 µM), 0.477; with OSI-027 + Navitoclax (first compound 0.3162 µM), 0.378; in the assay with OSI-027 + Navitoclax (first compound 1 µM), 0.318; with OSI-027 + Foretinib (first compound 0.01 µM), 0.601. For the same cell line, the relative viability worked out at 1.03 in the assay with OSI-027 + Foretinib (first compound 0.03162 µM); 0.863 with OSI-027 + Foretinib (first compound 0.1 µM); 0.812 with OSI-027 + Foretinib (first compound 0.3162 µM); 0.398 in the assay with OSI-027 + Foretinib (first compound 1 µM); 0.309 with Vemurafenib + Luminespib (first compound 0.03162 µM); 0.313 with Vemurafenib + Luminespib (first compound 0.3162 µM). The relative viability with Vemurafenib + Luminespib (first compound 1 µM) stood at 0.353; in the assay with Vemurafenib + AZD7762 (first compound 0.03162 µM) it was 0.555; with Vemurafenib + AZD7762 (first compound 0.1 µM), 0.468; with Vemurafenib + AZD7762 (first compound 0.3162 µM) it was 0.744; in the assay with Vemurafenib + AZD7762 (first compound 1 µM), 0.59.

As to NCI-H838, the relative viability came to 0.981 in the assay with OSI-027 + Navitoclax (first compound 0.01 µM); 0.998 with OSI-027 + Navitoclax (first compound 0.03162 µM); 0.853 with OSI-027 + Navitoclax (first compound 0.1 µM); 0.501 with OSI-027 + Navitoclax (first compound 0.3162 µM); 0.276 with OSI-027 + Navitoclax (first compound 1 µM); 1.04 in the assay with OSI-027 + Foretinib (first compound 0.01 µM). Also, the relative viability with OSI-027 + Foretinib (first compound 0.03162 µM) came out at 0.827; with OSI-027 + Foretinib (first compound 0.1 µM), 0.901; with OSI-027 + Foretinib (first compound 0.3162 µM), 0.568; in the assay with OSI-027 + Foretinib (first compound 1 µM), 0.416; with Vemurafenib + Luminespib (first compound 0.03162 µM) it was 0.291; with Vemurafenib + Luminespib (first compound 0.1 µM), 0.349. Besides, the relative viability with Vemurafenib + Luminespib (first compound 1 µM) stood at 0.352; in the assay with Vemurafenib + AZD7762 (first compound 0.03162 µM), 0.899; with Vemurafenib + AZD7762 (first compound 0.1 µM), 0.955; with Vemurafenib + AZD7762 (first compound 0.3162 µM), 0.709; with Vemurafenib + AZD7762 (first compound 1 µM), 0.918.

With NCI-H1355, the relative viability with OSI-027 + Navitoclax (first compound 0.01 µM) stood at 0.84; in the assay with OSI-027 + Navitoclax (first compound 0.03162 µM) it was 0.868; with OSI-027 + Navitoclax (first compound 0.1 µM), 0.855; with OSI-027 + Navitoclax (first compound 0.3162 µM), 0.529; in the assay with OSI-027 + Navitoclax (first compound 1 µM) it was 0.205; in the assay with OSI-027 + Foretinib (first compound 0.01 µM) it was 1.01. Moreover, the relative viability in the assay with OSI-027 + Foretinib (first compound 0.03162 µM) was determined as 0.784; with OSI-027 + Foretinib (first compound 0.1 µM) it was 0.928; with OSI-027 + Foretinib (first compound 0.3162 µM), 0.763; with OSI-027 + Foretinib (first compound 1 µM), 0.33; with Vemurafenib + Luminespib (first compound 0.03162 µM), 0.664; in the assay with Vemurafenib + Luminespib (first compound 0.1 µM) it was 0.662. Besides, the relative viability with Vemurafenib + Luminespib (first compound 0.3162 µM) stood at 0.696; with Vemurafenib + Luminespib (first compound 1 µM) it was 0.672; with Vemurafenib + AZD7762 (first compound 0.03162 µM), 0.672; in the assay with Vemurafenib + AZD7762 (first compound 0.1 µM), 0.663; with Vemurafenib + AZD7762 (first compound 0.3162 µM) it was 0.603; in the assay with Vemurafenib + AZD7762 (first compound 1 µM), 0.698.

Regarding NCI-H1395, the relative viability in the assay with OSI-027 + Navitoclax (first compound 0.01 µM) turned out to be 1.16; with OSI-027 + Navitoclax (first compound 0.03162 µM), 0.998; in the assay with OSI-027 + Navitoclax (first compound 0.1 µM), 1.03; with OSI-027 + Navitoclax (first compound 0.3162 µM), 0.85; in the assay with OSI-027 + Navitoclax (first compound 1 µM), 0.79; with OSI-027 + Foretinib (first compound 0.01 µM) it was 0.965. The relative viability was 0.903 in the assay with OSI-027 + Foretinib (first compound 0.03162 µM); 0.959 with OSI-027 + Foretinib (first compound 0.1 µM); 0.847 with OSI-027 + Foretinib (first compound 0.3162 µM); 0.637 with OSI-027 + Foretinib (first compound 1 µM); 0.679 with Vemurafenib + Luminespib (first compound 0.03162 µM); 0.445 in the assay with Vemurafenib + Luminespib (first compound 0.1 µM). In addition, the relative viability with Vemurafenib + Luminespib (first compound 1 µM) was 0.555; with Vemurafenib + AZD7762 (first compound 0.03162 µM), 0.397; with Vemurafenib + AZD7762 (first compound 0.1 µM), 0.411; with Vemurafenib + AZD7762 (first compound 0.3162 µM), 0.381; with Vemurafenib + AZD7762 (first compound 1 µM), 0.373.

Regarding NCI-H1437, the relative viability is 1.12 with OSI-027 + Navitoclax (first compound 0.01 µM); 1.01 in the assay with OSI-027 + Navitoclax (first compound 0.03162 µM); 1.14 with OSI-027 + Navitoclax (first compound 0.1 µM); 1 with OSI-027 + Navitoclax (first compound 0.3162 µM); 0.487 with OSI-027 + Navitoclax (first compound 1 µM); 1.27 with OSI-027 + Foretinib (first compound 0.01 µM). The relative viability in the assay with OSI-027 + Foretinib (first compound 0.03162 µM) is 1.26; in the assay with OSI-027 + Foretinib (first compound 0.1 µM), 1.34; with OSI-027 + Foretinib (first compound 0.3162 µM), 1.28; with OSI-027 + Foretinib (first compound 1 µM), 0.691; with Vemurafenib + Luminespib (first compound 0.03162 µM) it was 1.09; in the assay with Vemurafenib + Luminespib (first compound 0.1 µM), 1.07. Moreover, the relative viability with Vemurafenib + Luminespib (first compound 0.3162 µM) is 1.2; with Vemurafenib + Luminespib (first compound 1 µM), 1.12; in the assay with Vemurafenib + AZD7762 (first compound 0.03162 µM) it was 1.14; with Vemurafenib + AZD7762 (first compound 0.1 µM) it was 1.04; with Vemurafenib + AZD7762 (first compound 0.3162 µM) it was 0.943; with Vemurafenib + AZD7762 (first compound 1 µM), 1.09.

With NCI-H1651, the relative viability amounted to 1.07 with OSI-027 + Navitoclax (first compound 0.01 µM); 0.935 with OSI-027 + Navitoclax (first compound 0.1 µM); 0.836 with OSI-027 + Navitoclax (first compound 0.3162 µM); 0.341 in the assay with OSI-027 + Navitoclax (first compound 1 µM); 0.732 with OSI-027 + Foretinib (first compound 0.01 µM); 0.677 in the assay with OSI-027 + Foretinib (first compound 0.03162 µM). Further, the relative viability with OSI-027 + Foretinib (first compound 0.1 µM) worked out at 0.69; in the assay with OSI-027 + Foretinib (first compound 0.3162 µM), 0.653; with OSI-027 + Foretinib (first compound 1 µM) it was 0.491; with Vemurafenib + Luminespib (first compound 0.03162 µM), 0.91; with Vemurafenib + Luminespib (first compound 0.1 µM), 1.05; with Vemurafenib + Luminespib (first compound 0.3162 µM) it was 0.946. In addition, the relative viability with Vemurafenib + Luminespib (first compound 1 µM) was determined as 0.84; with Vemurafenib + AZD7762 (first compound 0.03162 µM) it was 0.407; with Vemurafenib + AZD7762 (first compound 0.1 µM), 0.407; with Vemurafenib + AZD7762 (first compound 0.3162 µM), 0.4; in the assay with Vemurafenib + AZD7762 (first compound 1 µM) it was 0.467.

For the cell line NCI-H1666, the relative viability amounted to 0.912 with OSI-027 + Navitoclax (first compound 0.01 µM); 0.878 with OSI-027 + Navitoclax (first compound 0.03162 µM); 0.662 with OSI-027 + Navitoclax (first compound 0.1 µM); 0.575 in the assay with OSI-027 + Navitoclax (first compound 0.3162 µM); 0.391 with OSI-027 + Navitoclax (first compound 1 µM); 1 with OSI-027 + Foretinib (first compound 0.01 µM). Further, the relative viability in the assay with OSI-027 + Foretinib (first compound 0.03162 µM) stood at 0.942; in the assay with OSI-027 + Foretinib (first compound 0.1 µM), 0.922; with OSI-027 + Foretinib (first compound 0.3162 µM), 0.795; with OSI-027 + Foretinib (first compound 1 µM), 0.783; with Vemurafenib + Luminespib (first compound 0.03162 µM), 0.933; with Vemurafenib + Luminespib (first compound 0.1 µM), 0.877. In addition, the relative viability with Vemurafenib + Luminespib (first compound 0.3162 µM) stood at 1.02; with Vemurafenib + Luminespib (first compound 1 µM), 0.966; with Vemurafenib + AZD7762 (first compound 0.03162 µM) it was 0.782; in the assay with Vemurafenib + AZD7762 (first compound 0.1 µM) it was 0.73; in the assay with Vemurafenib + AZD7762 (first compound 0.3162 µM) it was 0.729; in the assay with Vemurafenib + AZD7762 (first compound 1 µM), 0.829.

These data come from the supplement of paper PMC10307832.
